Reference: patent US20210070748A1, “INHIBITORS OF BRUTONS TYROSINE KINASE” (Pharmacyclics LLC, priority 2015, published 2021)

Columns and labels:
Assay type in all cases: biochemical
BTK-WT = target: T1, BTK-WT (Homo sapiens, UniProt Q06187); experiment: Btk in vitro inhibitory activity (one of Method A TR-FRET, Method B electrophoretic mobility shift, Method C radiometric filter binding); settings: E compounds, Table 17; read-out: IC50 BTK-WT
T1 construct: purified from insect cells as a full-length construct containing an N-terminal 6X-His tag; His6 (N); made in house; host or cells: insect cells (baculovirus Sf21 in Method B)
T1 sequence (Q06187 whole entry): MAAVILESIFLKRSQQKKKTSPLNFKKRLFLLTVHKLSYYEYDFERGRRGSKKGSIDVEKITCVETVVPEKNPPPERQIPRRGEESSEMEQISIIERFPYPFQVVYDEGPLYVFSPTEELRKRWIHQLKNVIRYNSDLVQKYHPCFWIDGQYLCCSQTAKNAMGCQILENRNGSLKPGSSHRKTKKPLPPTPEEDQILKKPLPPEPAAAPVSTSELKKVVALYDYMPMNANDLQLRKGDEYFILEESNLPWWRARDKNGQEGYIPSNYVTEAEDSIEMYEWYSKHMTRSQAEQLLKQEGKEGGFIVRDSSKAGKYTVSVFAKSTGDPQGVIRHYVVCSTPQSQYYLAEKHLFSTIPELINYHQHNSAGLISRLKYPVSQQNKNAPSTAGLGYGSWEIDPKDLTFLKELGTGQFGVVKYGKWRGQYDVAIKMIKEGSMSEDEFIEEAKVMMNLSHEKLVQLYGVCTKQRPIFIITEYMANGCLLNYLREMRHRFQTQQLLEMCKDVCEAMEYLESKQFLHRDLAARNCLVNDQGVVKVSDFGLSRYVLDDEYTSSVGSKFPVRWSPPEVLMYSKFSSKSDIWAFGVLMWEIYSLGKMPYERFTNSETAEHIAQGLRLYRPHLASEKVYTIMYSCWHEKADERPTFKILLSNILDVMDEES

JAK3 = target: T2, JAK3 (Homo sapiens, UniProt P52333); experiment: Inhibition of a panel of kinases, in vitro HotSpot kinase assay: JAK3; settings: E compounds, Table 17; read-out: IC50 JAK3
T2 sequence (P52333 1-1124): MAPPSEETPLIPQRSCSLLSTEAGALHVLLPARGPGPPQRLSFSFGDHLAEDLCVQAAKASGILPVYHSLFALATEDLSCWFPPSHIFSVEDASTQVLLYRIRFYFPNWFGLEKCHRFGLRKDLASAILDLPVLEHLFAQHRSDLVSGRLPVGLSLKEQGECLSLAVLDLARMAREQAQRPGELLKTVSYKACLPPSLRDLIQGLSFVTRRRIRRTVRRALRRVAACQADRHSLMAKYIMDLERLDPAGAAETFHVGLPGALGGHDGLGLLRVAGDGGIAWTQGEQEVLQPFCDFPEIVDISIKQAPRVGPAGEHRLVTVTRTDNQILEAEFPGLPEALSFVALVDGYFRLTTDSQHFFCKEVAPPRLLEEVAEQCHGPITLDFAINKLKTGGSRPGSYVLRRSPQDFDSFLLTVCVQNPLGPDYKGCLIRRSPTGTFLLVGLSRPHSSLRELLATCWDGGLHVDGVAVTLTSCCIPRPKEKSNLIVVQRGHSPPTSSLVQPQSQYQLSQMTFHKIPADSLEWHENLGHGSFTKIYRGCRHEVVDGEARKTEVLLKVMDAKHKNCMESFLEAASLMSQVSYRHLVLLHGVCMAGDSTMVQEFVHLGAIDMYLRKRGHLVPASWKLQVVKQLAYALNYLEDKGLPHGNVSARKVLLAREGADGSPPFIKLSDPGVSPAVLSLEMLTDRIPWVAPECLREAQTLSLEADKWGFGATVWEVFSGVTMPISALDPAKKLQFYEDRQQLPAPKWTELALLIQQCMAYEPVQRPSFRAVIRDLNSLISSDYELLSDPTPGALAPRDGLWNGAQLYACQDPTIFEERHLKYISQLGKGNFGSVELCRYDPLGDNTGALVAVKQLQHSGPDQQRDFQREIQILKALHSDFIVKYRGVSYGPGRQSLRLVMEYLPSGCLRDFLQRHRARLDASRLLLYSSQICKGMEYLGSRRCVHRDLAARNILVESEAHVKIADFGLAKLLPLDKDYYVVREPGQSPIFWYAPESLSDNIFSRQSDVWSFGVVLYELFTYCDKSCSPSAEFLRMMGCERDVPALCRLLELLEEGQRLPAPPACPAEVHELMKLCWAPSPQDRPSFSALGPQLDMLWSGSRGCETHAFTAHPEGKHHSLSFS

LCK = LCK (Homo sapiens, UniProt P06239); experiment: Inhibition of a panel of kinases, in vitro HotSpot kinase assay: LCK; settings: E compounds, Table 17; read-out: IC50 LCK
Sequence of LCK (P06239 whole entry): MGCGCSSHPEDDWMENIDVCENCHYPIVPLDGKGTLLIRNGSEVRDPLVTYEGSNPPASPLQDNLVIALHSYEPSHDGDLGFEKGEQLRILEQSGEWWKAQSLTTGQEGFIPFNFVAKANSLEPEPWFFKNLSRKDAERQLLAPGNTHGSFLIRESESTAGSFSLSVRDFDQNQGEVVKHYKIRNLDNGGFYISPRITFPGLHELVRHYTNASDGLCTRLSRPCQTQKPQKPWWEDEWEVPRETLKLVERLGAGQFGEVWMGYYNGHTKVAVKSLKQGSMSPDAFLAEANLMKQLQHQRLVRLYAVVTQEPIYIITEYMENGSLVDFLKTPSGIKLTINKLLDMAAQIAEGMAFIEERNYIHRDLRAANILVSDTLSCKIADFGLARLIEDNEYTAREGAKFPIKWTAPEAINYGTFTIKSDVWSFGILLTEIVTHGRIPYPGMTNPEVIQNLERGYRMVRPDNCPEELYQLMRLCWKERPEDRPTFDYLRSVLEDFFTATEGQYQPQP

Row | IC50 (BTK-WT) [µM] | IC50 (JAK3) [µM] | IC50 (LCK) [µM] | SMILES
1 | ≤ 0.01 | 0.1 to 1 | 0.1 to 1 | C[C@@H]1[C@H](NC(=O)c2ccc(C(=O)N(C)C)cc2)CCCN1c1cnc(C(N)=O)c(Nc2cnn(C)c2)n1 [Example E-138, N1-((2R,3R)-1-(5-carbamoyl-6-((1-methyl-1H-pyrazol-4-yl)amino)pyrazin-2-yl)-2-methylpiperidin-3-yl)-N4,N4-dimethylterephthalamide]
2 | ≤ 0.01 | 0.1 to 1 | 0.01 to 0.1 | C[C@@H]1[C@H](NC(=O)c2ccc3oc(C4CC4)nc3c2)CCCN1c1cnc(C(N)=O)c(Nc2cnn(C)c2)n1 [Example E-139, N-((2R,3R)-1-(5-carbamoyl-6-((1-methyl-1H-pyrazol-4-yl)amino)pyrazin-2-yl)-2-methylpiperidin-3-yl)-2-cyclopropylbenzo[d] oxazole-5-carboxamide]
3 | 0.1 to 1 | > 10 | 1 to 10 | C[C@@H]1CCN(c2cnc(C(N)=O)c(Nc3cnn(C)c3)n2)C[C@@H]1NC(=O)c1ccc(C2CC2)cc1 [Example E-140, 5-((3R,4R)-3-(4-cyclopropylbenzamido)-4-methylpiperidin-1-yl)-3-((1-methyl-1H-pyrazol-4-yl)amino)pyrazine-2-carboxamide]
4 | ≤ 0.01 | 0.1 to 1 | 0.01 to 0.1 | C[C@@H]1[C@H](NC(=O)c2ccc(C(C)(C)N3CCCC3)cc2)CCCN1c1cnc(C(N)=O)c(Nc2cnn(C)c2)n1 [Example E-143, 3-((1-methyl-1H-pyrazol-4-yl)amino)-5-((2R,3R)-2-methyl-3-(4-(2-(pyrrolidin-1-yl)propan-2-yl)benzamido)piperidin-1-yl)pyrazine-2-carboxamide]
5 | ≤ 0.01 | 0.1 to 1 | 0.01 to 0.1 | C[C@@H]1[C@H](NC(=O)c2cccc(C(C)(C)O)c2)CCCN1c1cnc(C(N)=O)c(Nc2cnn(C)c2)n1 [Example E-145, 5-((2R,3R)-3-(3-(2-hydroxypropan-2-yl)benzamido)-2-methylpiperidin-1-yl)-3-((1-methyl-1H-pyrazol-4-yl)amino)pyrazine-2-carboxamide]
6 | ≤ 0.01 | 1 to 10 | 0.01 to 0.1 | C[C@@H]1[C@H](NC(=O)c2cc(C(C)(C)C)nn2C)CCCN1c1cnc(C(N)=O)c(Nc2cnn(C)c2)n1 [Example E-146, 5-((2R,3R)-3-(3-(tert-butyl)-1-methyl-1H-pyrazole-5-carboxamido)-2-methylpiperidin-1-yl)-3-((1-methyl-1H-pyrazol-4-yl)amino)pyrazine-2-carboxamide]
7 | ≤ 0.01 | 0.1 to 1 | 0.01 to 0.1 | C[C@@H]1[C@H](NC(=O)c2ccc(C3CC3)cc2)CCCN1c1cnc(C(N)=O)c(Nc2ccc(N3CCN(C)C[C@@H]3C)cc2)n1 [Example E-148, 5-((2R,3R)-3-(4-cyclopropylbenzamido)-2-methylpiperidin-1-yl)-3-((4-((S)-2,4-dimethylpiperazin-1-yl)phenyl)amino)pyrazine-2-carboxamide]
8 | 0.1 to 1 | 1 to 10 | 1 to 10 | C[C@@H]1[C@H](NC(=O)c2noc(C(C)(C)C)n2)CCCN1c1cnc(C(N)=O)c(Nc2cnn(C)c2)n1 [Example E-149, 5-(tert-butyl)-N-((2R,3R)-1-(5-carbamoyl-6-((1-methyl-1H-pyrazol-4-yl)amino)pyrazin-2-yl)-2-methylpiperidin-3-yl)-1,2,4-oxadiazole-3-carboxamide]
9 | 0.1 to 1 | 1 to 10 | 1 to 10 | Cn1cc(Nc2nc(N3CCCC(C)(NC(=O)c4ccc(C5CC5)cc4)C3)cnc2C(N)=O)cn1 (stereo not drawn) [Example E-150, 5-(3-(4-cyclopropylbenzamido)-3-methylpiperidin-1-yl)-3-((1-methyl-1H-pyrazol-4-yl)amino)pyrazine-2-carboxamide]
10 | ≤ 0.01 | 0.1 to 1 | 0.1 to 1 | CCC(O)(CC)c1ccc(C(=O)N[C@@H]2CCCN(c3cnc(C(N)=O)c(Nc4cnn(C)c4)n3)[C@@H]2C)cc1 [Example E-151, 5-((2R,3R)-3-(4-(3-hydroxypentan-3-yl)benzamido)-2-methylpiperidin-1-yl)-3-((1-methyl-1H-pyrazol-4-yl)amino)pyrazine-2-carboxamide]

Further lines, the compound ahead of its results:

Row | SMILES | IC50 (BTK-WT) [µM] | IC50 (JAK3) [µM] | IC50 (LCK) [µM]
11 | C=CC(=O)N1CCC[C@@H](N(C)c2cnc(C(N)=O)c(Nc3ccc(C4CCN(C5CCCC5)CC4)cc3)n2)C1 [Example E-125, (R)-5-((1-acryloylpiperidin-3-yl)(methyl)amino)-3-(4-(1-cyclopentylpiperidin-4-yl)phenylamino)pyrazine-2-carboxamide] | ≤ 0.01 | < 0.01 | 0.01 to 0.1
12 | C=CC(=O)N1CCC[C@@H](Nc2nnc(C(N)=O)c(Nc3ccc(C4(C)CCN(C5CC5)CC4)cc3)n2)[C@H]1C [Example E-127, 3-(((2R,3R)-1-acryloyl-2-methylpiperidin-3-yl)amino)-5-((4-(1-cyclopropyl-4-methylpiperidin-4-yl)phenyl)amino)-1,2,4-triazine-6-carboxamide] | ≤ 0.01 | < 0.01 | < 0.01
13 | CC(C)c1ccc(Nc2nc(N3CCC[C@@H](N4CCC[C@@H](Nc5cc(Cl)cc(C(F)(F)F)c5)C4=O)C3)nnc2C(N)=O)cc1 [Example E-128, 3-((3R,3′R)-3-((3-chloro-5-(trifluoromethyl)phenyl)amino)-2-oxo-[1,3′-bipiperidin]-1′-yl)-5-((4-isopropylphenyl)amino)-1,2,4-triazine-6-carboxamide] | 0.1 to 1 | 1 to 10 | 0.01 to 0.1
14 | C[C@@H]1[C@H](NC(=O)c2ccc(C3CC3)cc2)CCCN1c1cnc(C(N)=O)c(Nc2ccc(OC3CCN(C)C3)cc2)n1 (stereo partly drawn) [Example E-136, 5-((2R,3R)-3-(4-cyclopropylbenzamido)-2-methylpiperidin-1-yl)-3-((4-((1-methylpyrrolidin-3-yl)oxy)phenyl)amino) pyrazine-2-carboxamide] | ≤ 0.01 | 0.1 to 1 | 0.01 to 0.1
15 | C[C@@H]1[C@H](NC(=O)c2ccc(C3CC3)cc2)CCCN1c1cnc(C(N)=O)c(Nc2ccc(N3CCN(C4CCCC4)C[C@@H]3C)cc2)n1 [Example E-137, 3-((4-((S)-4-cyclopentyl-2-methylpiperazin-1-yl)phenyl)amino)-5-((2R,3R)-3-(4-cyclopropylbenzamido)-2-methyipiperidin-1-yl)pyrazine-2-carboxamide] | ≤ 0.01 | 1 to 10 | 0.01 to 0.1
16 | Cn1cc(Nc2nc(N3CCC4CCN(C(=O)c5ccc(C6CC6)cc5)C4C3)cnc2C(N)=O)cn1 (stereo not drawn) [Example E-141, 5-(1-(4-cyclopropylbenzoyl)octahydro-6H-pyrrolo[2,3-c]pyridin-6-yl)-3-((1-methyl-3H-pyrazol-4-yl)amino)pyrazine-2-carboxamide] | 0.1 to 1 | 1 to 10 | 0.1 to 1
17 | C[C@@H]1[C@H](NC(=O)c2ccc(C3CC3)cc2)CCCN1c1cnc(C(N)=O)c(Nc2ccc(N3CCN(C4COC4)C[C@@H]3C)cc2)n1 [Example E-142, 5-((2R,3R)-3-(4-cyclopropylbenzamido)-2-methylpiperidin-1-yl)-3-((4-((S)-2-methyl-4-(oxetan-3-yl)piperazin-1-yl)phenyl)amino)pyrazine-2-carboxamide] | ≤ 0.01 | 1 to 10 | 0.01 to 0.1
18 | C[C@@H]1[C@H](NC(=O)c2ccc(C3CC3)cc2)CCCN1c1cnc(C(N)=O)c(Nc2cnc(C3CCOCC3)nc2)n1 [Example E-144, 5-((2R,3R)-3-(4-cyclopropylbenzamido)-2-methylpiperidin-1-yl)-3-((2-(tetrahydro-2H-pyran-4-yl)pyrimidin-5-yl)amino)pyrazine-2-carboxamide] | 0.01 to 0.1 | > 10 | 0.1 to 1
19 | C[C@@H]1[C@H](NC(=O)c2ccc(C(C)(C)O)cc2)CCCN1c1cnc(C(N)=O)c(Nc2ccc(C3(C)CCN(C4CC4)CC3)cc2)n1 [Example E-147, 3-((4-(1-cyclopropyl-4-methylpiperidin-4-yl)phenyl)amino)-5-((2R,3R)-3-(4-(2-hydroxypropan-2-yl)benzamido)-2-methylpiperidin-1-yl)pyrazine-2-carboxamide] | ≤ 0.01 | 0.1 to 1 | < 0.01
